Test systems include DMS 114 small cell lung; DMS 273 small cell lung; KM20L2 colon; LXFL 529 NSCLC; XF 498 CNS; RXF-631 renal.
Holding throughout (assay): NCI anticancer screen, dose series, 48 h

The record followed here is PubChem BioAssay (NCI).

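Each compound was tested at five concentrations against cells in 96-well plates for 48 hours. GI50 = concentration required for 50% inhibition of growth. TGI: total growth inhibition.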

In the case of `CCOC(=O)C1(C#N)C(c2ccccc2)CC(O)(c2ccc([N+](=O)[O-])cc2)C(C(=O)c2ccc([N+](=O)[O-])cc2)C1c1ccccc1` (centres undefined), the TGI in the assay on DMS 114 small cell lung, in the assay with DMS 273 small cell lung, with KM20L2 colon, in the assay with LXFL 529 NSCLC and in the assay with XF 498 CNS was more than 100 µM each time.
For the compound `CC(C)N(C(=O)C1(C)CC1)C(C)C`, the TGI in the assay on DMS 114 small cell lung, in the assay on DMS 273 small cell lung, in the assay with KM20L2 colon, with LXFL 529 NSCLC, with RXF-631 renal and with XF 498 CNS was more than 100 µM each time.
For `CCOc1cc2ccc3c4cc(OC)c(OC)cc4cnc3c2cc1OCC`, the TGI in the assay on DMS 114 small cell lung, in the assay on KM20L2 colon, in the assay with LXFL 529 NSCLC and in the assay on XF 498 CNS was more than 100 µM each time.
For `CC(C)C1C(=O)NC(CO)Cc2c[nH]c3c(C(c4c[nH]c5ccccc45)C(O)CO)ccc(c23)N1C` (centres undefined), the TGI in the assay with DMS 273 small cell lung, in the assay with LXFL 529 NSCLC and in the assay on XF 498 CNS was more than 100 µM each time.
Regarding `COc1c(C)c2c(c3c1c(=O)c1ccccc1n3C)C=CC(C)(C)O2`, the TGI was 43 µM with DMS 114 small cell lung; 38 µM with DMS 273 small cell lung; more than 100 µM in the assay on KM20L2 colon; 94.4 µM in the assay on LXFL 529 NSCLC; 55.7 µM in the assay with XF 498 CNS.
With `O=c1c(-c2ccccc2)c2oc(c1-c1ccccc1)CS(=O)(=O)CCC2`, the TGI with DMS 114 small cell lung was more than 100 µM; with DMS 273 small cell lung, 58.3 µM; with LXFL 529 NSCLC, 33.7 µM; with XF 498 CNS, 24.7 µM.
Regarding `O=C1OC2C(O)COC2(O)C1(O)C(C[N+](=O)[O-])c1ccc(Cl)cc1` (centres undefined), the TGI with DMS 114 small cell lung is 9.99 µM; in the assay with DMS 273 small cell lung, 9.87 µM; with KM20L2 colon, 6.17 µM; with LXFL 529 NSCLC, 4.07 µM.
As for `CC1CN(c2ccc(Cl)cc2)CC(C)(C)OC(=O)O1` (centres undefined), the TGI in the assay on DMS 114 small cell lung, with DMS 273 small cell lung, with KM20L2 colon, in the assay on LXFL 529 NSCLC, in the assay with RXF-631 renal and with XF 498 CNS was more than 100 µM throughout.
Consider `O=C(/C=C/c1ccc(O)c(O)c1)OC1C[C@@](O)(C(=O)O)C[C@@H](O)[C@H]1OC(=O)/C=C/c1ccc(O)c(O)c1` (some centres undefined), for which the TGI with DMS 114 small cell lung, in the assay with DMS 273 small cell lung, in the assay with KM20L2 colon, with LXFL 529 NSCLC and in the assay on XF 498 CNS was more than 100 µM throughout.
As to `CC(/C=C/C(=O)c1sc(-n2nc(-c3ccccc3)cc2-c2ccccc2)nc1C)=C\c1ccccc1`, the TGI in the assay on DMS 114 small cell lung, with DMS 273 small cell lung, in the assay on KM20L2 colon, in the assay with LXFL 529 NSCLC and in the assay with RXF-631 renal was more than 100 µM in each case. Further, the GI50 in the assay on DMS 273 small cell lung was more than 100 µM.
For the compound `N#CC(/C(=N\NC(=O)c1ccncc1)C(=O)Nc1ccc([N+](=O)[O-])cc1[N+](=O)[O-])c1nc(-c2ccc(Br)cc2)cs1` (centres undefined), the TGI in the assay on DMS 114 small cell lung, with KM20L2 colon, with LXFL 529 NSCLC and in the assay with RXF-631 renal was more than 100 µM throughout.
For the compound `CCOC(=O)C[C@@H](C)[C@]1(C(=O)OC)CCCC1=O`, the TGI was more than 58.9 µM in the assay on DMS 114 small cell lung; more than 100 µM in the assay on DMS 273 small cell lung; more than 100 µM with KM20L2 colon; more than 100 µM in the assay with LXFL 529 NSCLC; more than 100 µM with XF 498 CNS.
As to `COc1cc(OC)c2ssc3c(OC)cc(OC)c4ssc1c2-c43`, the TGI with DMS 114 small cell lung, in the assay on DMS 273 small cell lung, with KM20L2 colon, in the assay on LXFL 529 NSCLC and in the assay with XF 498 CNS was more than 100 µM throughout.
As to `Cc1ccc2[nH]c3c(C)c4c(c(C)c3c2c1)CN(C)C=C4`, the GI50 in the assay on DMS 114 small cell lung is 437 nM. The TGI in the assay on DMS 114 small cell lung was found to be 2.1 µM; in the assay on DMS 273 small cell lung it was 3.09 µM; in the assay on KM20L2 colon it was 11.8 µM; in the assay with LXFL 529 NSCLC it was 2.35 µM; with RXF-631 renal it was 8.75 µM; in the assay with XF 498 CNS, 6.06 µM.
Take `COc1ccc(/C=N/N=C(\N)NO)c(Cl)c1O`: the TGI in the assay on DMS 114 small cell lung and in the assay on LXFL 529 NSCLC was more than 100 µM throughout.
As for `O=C(CSc1nnc(Cc2ccccc2)o1)Nc1cccc(Cl)c1`, the TGI in the assay on DMS 273 small cell lung, in the assay on KM20L2 colon and in the assay with LXFL 529 NSCLC was more than 100 µM throughout.
Regarding `CC(=O)NC(CCCCN(Cc1ccccc1)C(=O)NCCCl)C(=O)NCc1ccccc1` (centres undefined), the TGI in the assay on DMS 114 small cell lung, with DMS 273 small cell lung, in the assay on KM20L2 colon, in the assay on LXFL 529 NSCLC and in the assay with RXF-631 renal was more than 100 µM in each case.
With `O=c1cc(-c2ccccc2)oc2cc(OCC(O)COc3ccc4c(=O)cc(-c5ccccc5)oc4c3)ccc12`, the TGI in the assay on DMS 114 small cell lung is more than 100 µM; in the assay on DMS 273 small cell lung, more than 100 µM; in the assay on KM20L2 colon it was more than 100 µM; in the assay on LXFL 529 NSCLC it was more than 100 µM; in the assay on XF 498 CNS, 48.1 µM.
